± gives the expanded uncertainty stated by the source.
Conditions: 101.33 kPa, Liquid, Vibrating tube method

## CCCCCC [hexane]
293.15 K
  mass density: 659.4 ± 4.1 kg/m3
298.15 K
  mass density: 654.76 ± 4 kg/m3
303.15 K
  mass density: 650.21 ± 4 kg/m3
308.15 K
  mass density: 645.43 ± 4 kg/m3
313.15 K
  mass density: 640.75 ± 4 kg/m3
